From patent US8722910B2, “Diyne compositions” (Evolva AG, priority 2009, dated 2014)
In brackets after ≈: the same amount, converted by molar mass. Where two headings read alike, the source gives them in different places.

How the values were obtained:
[1] = test system: C. tropicalis ATCC-750; test: MIC versus reference Candida strains (broth micro dilution); set-up: MICs (100% inhibition): unit not given beside the values; details: for MIC: Candida tropicalis
[2] = test system: C. albicans ATCC-90028; test: as above; set-up: MICs (100% inhibition): unit not given beside the values; details: for MIC: Candida albicans
[3] = test system: C. parapsilosis ATCC-22019; test: as above; set-up: MICs (100% inhibition): unit not given beside the values; details: for MIC: Lodderomyces parapsilosis
[4] = test system: C. krusei; test: In vitro antifungal activity vs. yeasts (MIC/MFC); format: cell-based; details: Pichia kudriavzevii, C. krusei (n = 1)
[5] = test system: T. rubrum, Terbinafine resistant isolates; test: In vitro antifungal activity vs. dermatophytes (MIC/MFC); format: cell-based
[6] = test system: yeasts; test: MFC range over yeasts tested; format: cell-based, Candida and Malassezia strains; details: Table 13 strains
From the text: The fungal isolates tested in this study to evaluate the antifungal activity of (Z)-14-([…]-11,13-diynoic acid, 14-([…]-11,13-diynoic acid, (Z)-14-([…]-11,13-diynoic acid, potassium salt and comparators are clinical isolates collected from patients and deposited at the culture collection of the Center for Medical Mycology. Tested isolates included: Candida albicans, C. glabrata, C. guilliermondii, C. krusei, C. lipolytica, C. lusitaniae, C. parapsilosis, C. tropicalis and Malassezia furfur. Dermatophyte strains included Trichophyton rubrum, T. mentagrophytes, T. tonsurans, T. terrestre, Epidermophyton floccosum, Microsporum canis, M. cookie, M. gallinae, M. gypseum, and M. vanbreuseghemii. […] The plates were then streaked with an inoculating loop to remove the cells from the drug source.

[7] = test system: C. krusei ATCC-6258; test: MIC versus reference Candida strains (broth micro dilution); set-up: MICs (100% inhibition): unit not given beside the values; details: for MIC: Pichia kudriavzevii
[8] = test system: C. albicans ATCC-24433; test: as above; set-up: MICs (100% inhibition): unit not given beside the values; details: for MIC: Candida albicans
[9] = test system: Staphylococcus aureus 29213; test: In vitro Antibacterial Activity; format: cell-based; details: read-out: MIC90
[10] = test system: C. albicans SC5314; test: MIC versus reference Candida strains (broth micro dilution); format: cell-based
[11] = test system: C. parapsilosis ATCC-90018; test: as above; set-up: MICs (100% inhibition): unit not given beside the values; details: for MIC: Lodderomyces parapsilosis
[12] = test system: C. glabrata ATCC-90030; test: as above; set-up: MICs (100% inhibition): unit not given beside the values; details: for MIC: Nakaseomyces glabratus
[13] = test system: Coccidioides spp.; test: microbe, parasite or virus in culture; format: cell-based
[14] = test system: C. dubliniensis; test: Susceptibility of clinical isolates (MIC, broth dilution); format: cell-based
Description: (§1) The efficacy of compound IV″ was investigated on 563 clinical isolates of 33 human fungal pathogens. […] For species with n≧10, the MIC90 (MIC, minimal inhibitory concentration) is given as ng/ml. For species with n≦10, the MIC range is given as ng/ml. 24 h and 48 h reads are indicated (Table 1).
(§2) The in vitro efficacy of antifungal compounds is determined in susceptibility assays, which are indicative for the spectrum and potency of a compound. Susceptibilities are reported as minimal inhibitory concentrations (MIC, as ng/ml or μg/ml) required to inhibit growth to a defined degree compared to the drug free control. The MIC90 defines the MIC required to inhibit growth for ≧90% of the strains of a population tested.
(§3) The MIC90 was calculated for the indicated species.

[15] = test system: C. parapsilosis; test: as above; format: cell-based
Description: as §1, §2, §3

[16] = test system: C. lusitaniae; test: as above; format: cell-based
Description: as §1, §2, §3

[17] = test system: C. krusei; test: as above; format: cell-based
Description: as §1, §2, §3

[18] = test system: C. tropicalis; test: as above; format: cell-based
Description: as §1, §2, §3

[19] = test system: C. albicans; test: as above; format: cell-based
Description: as §1, §2, §3

[20] = test system: C. glabrata; test: as above; format: cell-based
Description: as §1, §2, §3

**Q.** Which MIC ([1]; ATCC750) does the source give for `O=C(O)CCCCCCC/C=C\C#CC#Cc1ccco1` [Compound III″] here?
**A.** 2.5 ng/mL (≈ 8.79 nM)

**Q.** What about the MIC ([2]; ATCC90028) of the same molecule?
**A.** 1.25 ng/mL (≈ 4.4 nM)

**Q.** And the MIC ([3]; ATCC22019)?
**A.** 2560 ng/mL (≈ 9000 nM)

**Q.** And the MFC [4]?
**A.** 1 ng/mL (≈ 3.52 nM)

**Q.** And the MIC ([4]; 90% inhibition endpoint)?
**A.** 0.5 ng/mL (≈ 1.76 nM)

**Q.** What about the “MIC90/MIC range 48 h” value ([5]; T. rubrum, Terbinafine resistant isolates (n = 9), 48 h) of the same molecule?
**A.** <0.06 ng/mL

**Q.** What about the MIC ([5]; Trichophyton rubrum, 96 h, T. rubrum (TERB-resistant) (n = 9), 35° C., 4 days) of the same molecule?
**A.** < 0.06 ng/mL

**Q.** What about the MFC ([5]; Trichophyton rubrum, T. rubrum (TERB-resistant) (n = 9)) of the same molecule?
**A.** < 0.06 ng/mL

**Q.** And the “MFC range against yeasts” value [6]?
**A.** <0.06 to 32000 ng/mL

**Q.** What about the MIC ([7]; ATCC6258) of the same molecule?
**A.** 10 ng/mL (≈ 35.2 nM)

**Q.** What about the MIC ([8]; ATCC24433) of the same molecule?
**A.** 1.25 ng/mL (≈ 4.4 nM)

**Q.** And the MIC90 [9]?
**A.** 50000 ng/mL (≈ 176000 nM)

**Q.** And the MIC [10]?
**A.** 0.5 ng/mL (≈ 1.76 nM)

**Q.** And the MIC ([11]; ATCC90018)?
**A.** 2560 ng/mL (≈ 9000 nM)

**Q.** What about the MIC ([12]; ATCC90030) of the same molecule?
**A.** 10 ng/mL (≈ 35.2 nM)

**Q.** Which results are given for `O=C([O-])CCCCCCC/C=C\C#CC#Cc1ccco1.[K+]` [Compound IV″, potassium (Z)-14-(furan-2-yl)tetradeca-9-en-11,13-diynoate]?
**A.** MIC breakpoints ([1]; C. tropicalis ATCC 750, CLSI M27-A3, growth inhibition of 100%, 35° C., 24 hrs): 7.5 ng/mL; MICs (100% inhibition) ([1]; C. tropicalis ATCC 750, NCCLS M27A, 35° C., 24 hrs): 7.5; MIC ([1]; ATCC750): 5 ng/mL; MIC ([1]; ATCC750, read-out: minimal inhibitory concentrations): 7.5 ng/mL; MIC breakpoints ([2]; C. albicans ATCC 90028, CLSI M27-A3, growth inhibition of 100%, 35° C., 24 hrs): 5 ng/mL; MICs (100% inhibition) ([2]; C. albicans ATCC 90028, NCCLS M27A, 35° C., 24 hrs): 5; MIC ([2]; ATCC90028, read-out: minimal inhibitory concentrations): 5 ng/mL; MIC breakpoints ([3]; C. parapsilosis ATCC 22019, CLSI M27-A3, growth inhibition of 100%, 35° C., 24 hrs): 10240 ng/mL; MICs (100% inhibition) ([3]; C. parapsilosis ATCC 22019, NCCLS M27A, 35° C., 24 hrs): 10240; MIC ([3]; ATCC22019, read-out: minimal inhibitory concentrations): 10200 ng/mL; MIC breakpoints ([7]; C. krusei ATCC 6258, CLSI M27-A3, growth inhibition of 100%, 35° C., 24 hrs): 60 ng/mL; MICs (100% inhibition) ([7]; C. krusei ATCC 6258, NCCLS M27A, 35° C., 24 hrs): 60; MIC ([7]; ATCC6258): 20 ng/mL; MIC ([7]; ATCC6258, read-out: minimal inhibitory concentrations): 60 ng/mL; MIC breakpoints ([8]; C. albicans ATCC 24433, CLSI M27-A3, growth inhibition of 100%, 35° C., 24 hrs): 2.5 ng/mL; MICs (100% inhibition) ([8]; C. albicans ATCC 24433, NCCLS M27A, 35° C., 24 hrs): 2.5; MIC ([8]; ATCC24433, read-out: minimal inhibitory concentrations): 2.5 ng/mL; MIC90/MIC range 48 h ([13]; Coccidioides spp. (n = 30), MIC90): 30 ng/mL; MIC90 ([13]; Coccidioides, 48 h): 30 ng/mL; MIC [10]: 1.25 ng/mL; MIC90/MIC range 48 h ([14]; C. dubliniensis (n = 25), MIC90, 48 h): 2.5 ng/mL; MIC90 ([14]; Candida dubliniensis, 24 h): 2.5 ng/mL; MIC90/MIC range 48 h ([15]; C. parapsilosis (n = 37), MIC90, 48 h): 1024 ng/mL; MIC90 ([15]; Lodderomyces parapsilosis, 24 h): 1020 ng/mL; MIC50 ([15]; Lodderomyces parapsilosis, 24 h, read-out: calculated MIC50): 128 ng/mL; MIC90/MIC range 48 h ([16]; C. lusitaniae (n = 24), MIC90, 48 h): 128 ng/mL; MIC90 ([16]; Clavispora lusitaniae, 24 h): 128 ng/mL; MIC90/MIC range 48 h ([17]; C. krusei (n = 27), MIC90, 48 h): 20 ng/mL; MIC90 ([17]; Pichia kudriavzevii, 24 h): 20 ng/mL; MIC90/MIC range 48 h ([18]; C. tropicalis (n = 35), MIC90, 48 h): 5 ng/mL; MIC90 ([18]; Candida tropicalis, 24 h): 5 ng/mL; MIC90/MIC range 48 h ([19]; C. albicans (n = 20), MIC90, 48 h): 2.5 ng/mL; MIC90 ([19]; Candida albicans, 24 h): 2.5 ng/mL; MIC90/MIC range 48 h ([20]; C. glabrata (n = 25), MIC90, 48 h): 20 ng/mL; MIC90 ([20]; Nakaseomyces glabratus, 24 h): 20 ng/mL; MIC breakpoints ([11]; C. parapsilosis ATCC 90018, CLSI M27-A3, growth inhibition of 100%, 35° C., 24 hrs): >10240 ng/mL; MICs (100% inhibition) ([11]; C. parapsilosis ATCC 90018, NCCLS M27A, 35° C., 24 hrs): >10240; MIC ([11]; ATCC90018, read-out: minimal inhibitory concentrations): > 10200 ng/mL; MIC breakpoints ([12]; C. glabrata ATCC 90030, CLSI M27-A3, growth inhibition of 100%, 35° C., 24 hrs): 60 ng/mL; MICs (100% inhibition) ([12]; C. glabrata ATCC 90030, NCCLS M27A, 35° C., 24 hrs): 60; MIC ([12]; ATCC90030): 20 ng/mL; MIC ([12]; ATCC90030, read-out: minimal inhibitory concentrations): 60 ng/mL
